Holding throughout (assay type): functional
Experiment [1] deals with Enterococcus faecalis. In words: Antimicrobial activity against vancomycin-sensitive Enterococcus faecalis ATCC 29212 assessed as post antibiotic effect at 10 times MIC after 1 hr by plate counting method. To be noted: ATCC 29212, 1 h.
The subject of experiment [2] is Enterococcus faecalis. The experiment in a line: Antimicrobial activity against vancomycin-sensitive Enterococcus faecalis 10 assessed as time required to induce post antibiotic sub-MIC effect at 0.4 times MIC after 1 hr by plate counting method. The note with it: Enterococcus faecalis, 10, 1 h.
Experiment [3] has as its system Streptococcus pneumoniae. In words: Antimicrobial activity against Penicillin-, erythromycin-resistant Streptococcus pneumoniae 37 assessed as time required to induce post antibiotic sub-MIC effect at 0.2 times MIC after 1 hr by plate counting method. The note with it: Streptococcus pneumoniae, 37, 1 h.
Experiment [4] has as its system Streptococcus pneumoniae. In words: Antimicrobial activity against Penicillin-intermediate Streptococcus pneumoniae s1234 assessed as time required to induce sub-MIC effect at 0.2 times MIC after 1 hr by plate counting method.
The test system of experiment [5] is Staphylococcus aureus. The experiment in a line: Antimicrobial activity against methicillin-susceptible, vancomycin-susceptible Staphylococcus aureus ATCC 29213 assessed as time required to induce sub-MIC effect at 0.4 times MIC after 1 hr by plate counting method. To be noted: ATCC 29213, 1 h.
Experiment [6] concerns Staphylococcus aureus. In words: Antimicrobial activity against methicillin-resistant, vancomycin-resistant Staphylococcus aureus 770 assessed as time required to induce post antibiotic sub-MIC effect at 0.4 times MIC after 1 hr by plate counting method. The note with it: Staphylococcus aureus, 770, 1 h.
Experiment [7] has as its system Staphylococcus aureus. In words: Antimicrobial activity against methicillin-susceptible, vancomycin-susceptible Staphylococcus aureus sox1 assessed as time required to induce post antibiotic sub-MIC effect at 0.2 times MIC after 1 hr by plate counting method. To be noted: sox1, 1 h.
The test system of experiment [8] is Enterococcus faecalis. In words: Antimicrobial activity against vancomycin-sensitive Enterococcus faecalis ATCC 29212 assessed as time required to induce sub-MIC effect at 0.4 times MIC after 1 hr by plate counting method. The note with it: ATCC 29212, 1 h.
Experiment [9] deals with Enterococcus faecalis. The experiment in a line: Antimicrobial activity against vancomycin-resistant Enterococcus faecalis 266 assessed as time required to induce sub-MIC effect at 0.3 times MIC after 1 hr by plate counting method. To be noted: Enterococcus faecalis, 266, 1 h.
Experiment [10] has as its system Staphylococcus aureus. In words: Antimicrobial activity against methicillin-resistant, vancomycin-susceptible Staphylococcus aureus vs1 assessed as time required to induce sub-MIC effect at 0.2 times MIC after 1 hr by plate counting method. To be noted: vs1, 1 h.
Experiment [11] has as its system Staphylococcus aureus. In words: Antimicrobial activity against methicillin-resistant, vancomycin-resistant Staphylococcus aureus 770 assessed as time required to induce sub-MIC effect at 0.4 times MIC after 1 hr by plate counting method. To be noted: Staphylococcus aureus, 770, 1 h.
The subject of experiment [12] is Staphylococcus aureus. In words: Antimicrobial activity against methicillin-resistant, vancomycin-resistant Staphylococcus aureus 770 assessed as time required to induce sub-MIC effect at 0.2 times MIC after 1 hr by plate counting method. The note with it: Staphylococcus aureus, 770, 1 h.
Experiment [13] deals with Streptococcus pneumoniae. The experiment in a line: Antimicrobial activity against Penicillin-susceptible Streptococcus pneumoniae ATCC 49617 assessed as time required to induce post antibiotic sub-MIC effect at 0.3 times MIC after 1 hr by plate counting method. The note with it: ATCC 49617, 1 h.

Regarding `CCO/N=C(\C(=O)N[C@@H]1C(=O)N2C(C(=O)[O-])=C(Sc3nc(-c4cc[n+](C)cc4)cs3)CS[C@H]12)c1nsc(NP(=O)(O)O)n1` [CEFTAROLINE FOSAMIL], the PAE in experiment [1] was determined as 0.8 h; in experiment [2], 8.5 h; in experiment [4], 0 h; in [5], 2.8 h; in experiment [8] it was 10 h; in [13], 5.9 h. Also, the time stood at 1.9 h in experiment [3]; 7.1 h in [6]; 2.2 h in [7]; 1.8 h in experiment [9]; 0.4 h in experiment [10]; 0.6 h in [11]. Further, the time in [12] was found to be 0.3 h.
